Usually IC50 stands for the point on the concentration scale where inhibition reaches its midpoint.

The results in this text go back to patent US5374634A, “Pyridine derivatives” (Kyowa Hakko Kogyo Co., Ltd., priority 1992, dated 1994).

The first series concerns dd-strain male mice. The experiment in a line: Acute toxicity test (oral, minimum lethal dose). It counts as in vivo. Particulars: mortality observed for 7 days. Here is the method:
A test compound was orally administered to three dd-strain male mice weighing 20±1 g. The minimum lethal dose (MLD) was determined by observing the mortality for 7 days after the administration.
For the compound `COc1ccc(C(c2ccc(OC)cc2)c2cnccc2C(=O)N2CCN(c3ccccc3Cl)CC2)cc1` [Compound 6, 1-(2-Chlorophenyl)-4-{[3-bis(4-methoxyphenyl)methyl]-isonicotinyl}piperazine], the “MLD (minimum lethal dose)” value is on record as > 300 mg/kg.
On the same count and under the same terms, with `O=C(c1ccncc1C(c1ccc(O)cc1)c1ccc(O)cc1)N1CCN(c2ccccc2Cl)CC1` [Compound 13, 1-(2-Chlorophenyl)-4-{[3--bis(4,hydroxyphenyl)methyl]isonicotinyl}piperazine] the figure was > 1000 mg/kg.
`O=C(c1ccncc1C(c1ccc(O)cc1)c1ccc(O)cc1)N1CCN(c2cccc(Cl)c2)CC1` [Compound 18, 1-(3-Chlorophenyl)-4-{[3-bis(4-hydroxyphenyl)methyl]isonicotinyl}piperazine]: the “MLD (minimum lethal dose)” value is > 300 mg/kg.

The subject of a further series is PTH-induced calcium release (i.e. bone resorption) from bones (calvaria). The experiment in a line: Bone resorption-inhibiting effect: inhibition of PTH-induced calcium release from cultured calvaria. The format is cell-based, dd mice (5- to 6-day-old). Particulars: mouse half calvaria culture; PTH 1×10^-8 M; calcium in medium at 96 hours; test compound 3×10^-6, 1×10^-5, 3×10^-5 M. The protocol: The bone resorption-inhibiting effect of the compounds of the present invention is illustrated by the following experiment.
Calvaria were aseptically removed from 5- to 6-day-old dd mice, washed with Dulbecco's modified phosphate-buffered saline not containing calcium and magnesium (product of Gibco Oriental Co.), and cut along the sagittal suture into left and right halves. Each half calvarium was cultured in 1.5 ml medium consisting of Dulbecco's modified Eagle medium (high glucose) (product of Gibco Oriental Co.) supplemented with 15% heat-inactivated (at 56° C. for 20 minutes) horse serum, 2.5% heat-inactivated fetal bovine serum, plus 1% antibiotic-antimycotic liquid. The test compound was dissolved in dimethylsulfoxide, and a 10 μl portion of the solution was added to the culture to the final concentrations of 3×10^-6 M, 1×10^-5 M and 3×10^-5 M. PTH (parathyroid hormone) was dissolved in 0.15M sodium chloride (pH 3), and a 3 μl-portion of the resulting solution was added to the culture to the final concentration of 1×10^-8 M. Cultures were incubated at 37° C. in a water-saturated atmosphere consisting of 5% CO2 and 95% air. Typically, cultures were maintained for 96 hours and the media were changed at 48 hours. The test compound and PTH which had been processed in the same manner as described above were added thereto. In order to investigate the action of the test compound on PTH-induced calcium release (i.e. bone resorption) from bones, there were prepared 3 groups: control group, PTH treated group (1×10^-8 M) and test compound- and PTH-treated group (3×10^-6 M, 1×10^-5 M, 3×10^-5 M). Bone resorption was assessed by measuring the accumulation of calcium in the culture media collected at 96 hours of culturing. The total calcium concentrations were determined using Calcium C-Test Wako (product of Wako). The inhibition rate was calculated therefrom according to the equation given below and 50% inhibitory concentration (IC50) was determined. [formula] CO : Total calcium concentration in the culture free from both PTH and test compound
Cp : Total calcium concentration in the culture treated with PTH only
CD : Total calcium concentration in the culture treated with both PTH and test compound.
For the compound `O=C(c1ccncc1C(c1ccc(O)cc1)c1ccc(O)cc1)N1CCN(c2ccccc2)CC1` [Compound 20, 1-Phenyl-4-{[3-bis(4-hydroxyphenyl)methyl]isonicotinyl}piperazine], the IC50 worked out at 75.6 µM.
Same read-out and setting: with `O=C(c1ccncc1C(c1ccc(O)cc1)c1ccc(O)cc1)N1CCN(c2ccc(Cl)cc2)CC1` [Compound 17, 1-(4-Chlorophenyl)-4-{[3-bis(4-hydroxyphenyl)methyl]isonicotinyl}piperazine] the figure was 24.9 µM.
Still for that read-out and setting: in the case of `Cc1cccc(N2CCN(C(=O)c3ccncc3C(c3ccc(O)cc3)c3ccc(O)cc3)CC2)c1` [Compound 21, 1-(3-Methylphenyl)-4-{[3-bis(4-hydroxyphenyl)methyl]isonicotinyl}piperazine] it was 8.5 µM; in that of `O=C(NC12CC3CC(CC(C3)C1)C2)c1ccncc1C(c1ccc(O)cc1)c1ccc(O)cc1` [Compound 11, N-(Tricyclo[3.3.1.1^3,7]dec-1-yl)-3-[bis(4-hydroxyphenyl)methyl]-4-pyridinecarboxamide], 20.3 µM.
For the compound `O=C(Nc1ccc(O)cc1)c1ccncc1C(c1ccc(O)cc1)c1ccc(O)cc1` [Compound 15, N-(4-Hydroxyphenyl)-3-[bis(4-hydroxyphenyl)methyl]-4-pyridinecarboxamide], the IC50 came to 75.6 µM.
On the same count and under the same terms, in the case of `O=C(c1ccncc1C(c1ccc(O)cc1)c1ccc(O)cc1)N1CCCCC1` [Compound 10] it was 19.2 µM.
`O=C(NC1CCCCCCC1)c1ccncc1C(c1ccc(O)cc1)c1ccc(O)cc1` [Compound 12, N-Cyclooctyl-3-[bis(4-hydroxyphenyl)methyl]-4-pyridinecarboxamide]: the IC50 came out at 11.6 µM.
Still for that read-out and setting: in the case of `O=C(c1ccncc1C(c1ccc(O)cc1)c1ccc(O)cc1)N1CCN(c2ccccc2Cl)CC1` [Compound 13, 1-(2-Chlorophenyl)-4-{[3--bis(4,hydroxyphenyl)methyl]isonicotinyl}piperazine] it was 6 µM.
On to `O=C(c1ccncc1C(c1ccc(O)cc1)c1ccc(O)cc1)N1CCN(c2ccccc2O)CC1` [Compound 19, 1-(2-Hydroxyphenyl)-4-{[3-bis(4-hydroxyphenyl)methyl]isonicotinyl}piperazine], for which the IC50 stood at 8.9 µM.
The same measure, in the same setting: in the case of `O=C(c1ccncc1C(c1ccc(O)cc1)c1ccc(O)cc1)N1CCN(c2cccc(C(F)(F)F)c2)CC1` [Compound 16, 1-(3-Trifluoromethylphenyl)-4-{[3-bis(4-hydroxyphenyl)methyl]isonicotinyl}piperazine] it was 7.1 µM; in that of `O=C(c1ccncc1C(c1ccc(O)cc1)c1ccc(O)cc1)N1CCN(c2cccc(Cl)c2)CC1` [Compound 18, 1-(3-Chlorophenyl)-4-{[3-bis(4-hydroxyphenyl)methyl]isonicotinyl}piperazine], 14 µM; in that of `O=C(NC12CC3CC(CC1C3)C2)c1ccncc1C(c1ccc(O)cc1)c1ccc(O)cc1` [Compound 9, N-(Tricyclo[3.3.1.0^3,7]non-3-yl)-3-[bis(4-hydroxyphenyl)methyl]-4-pyridinecarboxamide], 18.6 µM.
Still for that read-out and setting: in the case of `O=C(c1ccncc1C(c1ccc(O)cc1)c1ccc(O)cc1)N1CCN(c2ncccn2)CC1` [Compound 22, 1-(2-Pyrimidyl)-4-{[3-bis(4-hydroxyphenyl)methyl]isonicotinyl}piperazine] it was 19.6 µM.
